Reference: US20100130408A1, “USE OF MODIFIED CYCLOSPORINS” (priority 2006, published 2010)

Experiments:
HCV = conditions: Watashi et al., Hepatology (2003); cited from earlier work
HSCs = conditions: cited from earlier work
[1] = biological target: T1, human recombinant cyclophilin (Homo sapiens, UniProt P62937); test: competitive ELISA, cyclophilin on coated BSA-cyclosporin A, reference cyclosporin A; conditions: scale: log10
[2] = biological target: T1, human recombinant cyclophilin; test: competitive ELISA cyclophilin binding test (Binding Ratio); conditions: log to the base 10 of IC50 test compound / IC50 cyclosporin A
Procedure: A cyclosporin is considered as binding to cyclophilin if it binds to human recombinant cyclophilin at least one fifth as well as does cyclosporin A in the competitive ELISA test described by Quesniaux in Eur. J. Immunol. 1987 17 1359-1365. In this test, the cyclosporin to be tested is added during the incubation of cyclophilin with coated BSA-cyclosporin A and the concentration required to give a 50% inhibition of the control reaction without competitor is calculated (IC50). The results are expressed as the Binding Ratio (BR), which is the log to the base 10 of the ratio of the IC50 of the test compound and the IC50 in a simultaneous test of cyclosporin A itself.

Balb/c spleen cells = test: Mixed Lymphocyte Reaction (MLR); assay type: cell-based, mice; conditions: percentage of the activity relative to Cyclosporin A
Procedure: A cyclosporin is considered to be non-immunosuppressive when it has an activity in the Mixed Lymphocyte Reaction (MLR) of no more than 5%, preferably no more than 2%, that of cyclosporin A. The Mixed Lymphocyte Reaction is described by T. Meo in “Immunological Methods”, L. Lefkovits and B. Peris, Eds., Academic Press, N.Y. pp. 227-239 (1979). Spleen cells (0.5×106) from Balb/c mice (female, 8-10 weeks) are co-incubated for 5 days with […] irradiated (2000 reds) or mitomycin C treated spleen cells from CBA mice (female, 8-10 weeks). The irradiated allogeneic cells induce a proliferative response in the Balb/c spleen cells which can be measured by labeled precursor incorporation into the DNA. […] The IC50 found for the test compound in the MLR is compared with that found for cyclosporin A in a parallel experiment. In addition, non-immunosuppressive cyclosporins lack the capacity of inhibiting CN and the downstream NF-AT pathway.

T1 sequence (P62937 whole entry): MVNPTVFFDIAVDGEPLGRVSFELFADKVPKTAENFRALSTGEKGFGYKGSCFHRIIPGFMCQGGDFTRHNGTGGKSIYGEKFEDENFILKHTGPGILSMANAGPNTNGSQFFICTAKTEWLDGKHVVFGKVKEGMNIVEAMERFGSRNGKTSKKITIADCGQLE

Molecule | Binding Ratio (BR) [1] | Binding Ratio (BR) [2] | IR = Immunosuppressive Ratio (Balb/c spleen cells) | also measured
C=CC[C@@H]1/C=C(\C)C[C@H](C)C[C@H](OC)[C@H]2O[C@@](O)(C(=O)C(=O)N3CCCC[C@H]3C(=O)O[C@H](/C(C)=C/[C@@H]3CC[C@@H](O)[C@H](OC)C3)[C@H](C)[C@@H](O)CC1=O)[C@H](C)C[C@@H]2OC [tacrolimus] | – | – | – | replication of HCV in vitro (HCV): did not show this effect; reduction of collagen production (HSCs; 12.5 nM (10 ng/ml), previously reported in Nakamuta et al): does not significantly reduces collagen production; cell growth and collagen production in HSCs (HSCs; previous evaluation of immunosuppressive drugs): did not have such effects
[8'-hydroxy-MeBmt]^1-Ciclosporin (peptide) | 0.35 | – | – | –
[8′-hydroxy-MeBmt]^1-Ciclosporin | – | 0.35 | 1.8% | –
[Ethyl-Val]^4-Ciclosporin | – | 0 | < 2% | –
[Ethyl-Val]^4-Ciclosporin (peptide) | 0 | – | – | –
[Ethyl-lle]^4-Ciclosporin | – | 0.1 | < 2% | –
[Ethyl-lle]^4-Ciclosporin (peptide) | 0.1 | – | – | –
[MeAla]^6-Ciclosporin | – | −0.4 | 3.2% | –
[MeAla]^6-Ciclosporin (peptide) | -0.4 | – | – | –
[MeVal]^4-Ciclosporin | – | 0.1 | < 1% | –
[MeVal]^4-Ciclosporin (peptide) | 0.1 | – | – | –
[MeVal]^5-Ciclosporin | – | 0.4 | 5.3% | –
[MeVal]^5-Ciclosporin (peptide) | 0.4 | – | – | –
[Melle]^4-Ciclosporin | – | −0.2 | < 1% | –
[Melle]^4-Ciclosporin (peptide) | -0.2 | – | – | –
[dihydro-MeBmt]^1-[y-hydroxy-MeLeu]^4-Ciclosporin | – | 0.1 | < 1% | –
[dihydro-MeBmt]^1-[y-hydroxy-MeLeu]^4-Ciclosporin (peptide) | 0.1 | – | – | –
[y-hydroxy-MeLeu]^4-Ciclosporin | – | 0.4 | < 1% | –
[y-hydroxy-MeLeu]^4-Ciclosporin (peptide) | 0.4 | – | – | –
[y-hydroxy-MeLeu]^9-Ciclosporin | – | 0.15 | 2.9% | –
[y-hydroxy-MeLeu]^9-Ciclosporin (peptide) | 0.15 | – | – | –
